From patent US20090226536A1, “METHODS AND MATERIALS RELATING TO ENHANCED PRODUCTION OF DOPAMINE NEURONS” (priority 2004, published 2009)

Columns and labels:
[1] = test system: β-catenin; assay: Immunoblotting of β-catenin protein in VM precursors; assay type: cell-based, rat; conditions: 15 μM KP or 5 μM I3M for 24 hours
Experimental: (§1) E14.5 VMs obtained from time-mated Sprague-Dawley rats (ethical approval for animal experimentation was granted by Stockholms Norra Djurförsöks Etiska Nämnd) were dissected, mechanically dissociated, and plated at a final density of 1×10^5 cells per cm2 on poly-D-lysine coated plates (Falcon) in serum-free N2 medium, consisting of a 1:1 mixture of F12 and MEM (Invitrogen) with 5 μg/ml insulin, 100 μg/ml transferrin, 100 μM putrescine, 20 nM progesterone, 30 nM selenium, 6 mg/ml glucose and 1 mg/ml BSA (all purchased from Sigma). Cultures were kept three days in vitro, in a 37° C. incubator, at 5% CO2, before fixation. MN9D and SN4741 cells were grown as described in Choi et al., 1991 and Son et al., 1999. MN9D cultures were fixed after four days in vitro. I3M and KP (Alexis Biochemicals, Göteborg, Sweden) were diluted in DMSO and added to the cultures at the time of plating. […] 10 μM BrdU was added to the culture media 6 hours prior to fixation.
(§2) Cell were lysed for 15 min in a modified RIPA buffer containing 20 mM Tris (pH 7.5), 140 mM NaCl, 10% glycerol, 1% IGEPAL, 1 mM β-glycerol-phosphate, 1 mM Na3VO4 and complete protease inhibitors (Roche). Plates were scraped and the cell lysate was centrifuged in a microfuge for 5 min. […] Equal amounts of protein were analysed by polyacrylamide gel electrophoresis (10% polyacrylamide). […]

[2] = test system: rat VM E14.5 precursor cultures; assay: TH immunostaining, number of TH+ cells in VM precursor cultures; assay type: cell-based; conditions: for dose of maximal effect / optimal dose to increase TH+ cell numbers: dose-response in E14.5 VM precursors; for increase in the number of TH positive cells (maximal effect): rat VM E14.5 precursor cultures, three days in vitro, at 3-5 μM I3M, 15 μM KP
Experimental: as §1
(§3) Cells were fixed in ice-cold 4% paraformaldehyde for 20 minutes and washed in PBS. For a detailed protocol of immunocytochemistry, see Castelo-Branco et al., 2003 (7). The following primary and secondary antibodies were used: mouse α-TH (1:1000 dilution—Immunostar), rabbit α-TH (1:250-Pelfreeze), mouse α-β-III-tubulin (1:1000-Promega), rabbit α.Nurr1 (1:1000-Santa Cruz), mouse α-MAP2 (1:200—Sigma), rabbit A-GFAP (1:400-Dako), mouse α.active-caspase III (1:100-Cell Signaling), mouse α-BrdU (1:100-Dako) and rat α.BrdU (1:100-Abcam), biotinylated 1:500, Cyanine-2 or rhodamine-coupled horse-α-mouse IgG 1:200 or goat α-rabbit IgG 1:200, from Vector and Jackson Laboratories). At the end of the staining procedure, the cultures were incubated with Hoechst 33258 reagent for 10 minutes. BrdU immunocytochemistry included an incubation for 30 minutes with 2NHCL. Images were acquired from stained cells in PBS at room temperature with a Zeiss Axioplan 100M microscope (LD Achrostigmat 20×, 0.3 PH1. 0-2 and LD Achroplan 40×, 0.60 Korr PH2. 0-2) and collected with a Hamamatsu camera C4742-95 (with QED imaging software).
(§4) Quantitative immunocytochemical data represent the means±standard errors of counts from ten non-overlapping fields, in three wells per condition from three to five separate experiments. For the RT-PCR experiments, five separate experiments were analysed and for the GSK-3β inhibitors dose response, two sets of experiments were analysed. Statistical analysis was performed in Prism 4 (GraphPad software, San Diego, USA) as described in the figure legends, with […] significance for all tests assumed at the level of p<0.05 (*p<0.05; **0.01<p<0.001; ***p<0.001). Statistical tests were chosen according to the distribution of the sample population.

[3] = test system: TH; assay: Immunoblotting of TH protein in VM precursors; assay type: cell-based, rat; conditions: 15 μM KP or 5 μM I3M for 24 hours
Experimental: as §1, §2

[4] = test system: VM precursors; assay: Immunostaining for neuronal and glial differentiation (GFAP, TuJ1, MAP2, TH) of VM precursors; assay type: cell-based, rat; conditions: three days, 15 μM KP and 5 μM I3M
Experimental: as §1, §3, §4

[5] = test system: VM Nurr1+ precursors; assay: TH/Nurr1 double immunostaining, conversion of Nurr1+ precursors into TH+ neurons; assay type: cell-based, rat; conditions: three days after treatment with 15 μM KP
Experimental: as §1
Cells were fixed in ice-cold 4% paraformaldehyde for 20 minutes and washed in PBS. […]
Quantitative immunocytochemical data represent the means±standard errors of counts from ten non-overlapping fields, in three wells per condition from three to five separate experiments. For the RT-PCR experiments, five separate experiments were analysed and for the GSK-3β inhibitors dose response, two sets of experiments were analysed. […]

[6] = test system: VM precursor cultures; assay: Total cell number, proliferation (BrdU) and active Caspase 3 in VM precursor cultures; assay type: cell-based, rat; conditions: for active Caspase 3 immunostaining: VM precursor cultures; for active Caspase 3 immunostaining / proliferation (BrdU incorporation): 15 μM KP, 5 μM I3M; for proliferation (BrdU incorporation): VM precursors, 6 h BrdU pulse; for total number of VM cells (Hoechst 33258 staining): after 3 days in culture, 15 μM KP and 5 μM I3M
Experimental: as §1, §3, §4

[7] = test system: GSK-3β and CDKs; conditions: at 3-5 μM I3M and 15 μM KP; refs (20, 13); cited from earlier work
[8] = test system: c-ret mRNA; assay: Real time RT-PCR of c-ret mRNA in VM precursor cultures; assay type: cell-based, rat; conditions: 15 μM KP, three days in vitro
From the text: Total RNA was isolated from E14.5 VM precursor cultures (2.5×10^6 cells in 6 cm2 dishes) treated with the GSK-3β inhibitors for three days in vitro. For a description of reverse transcription reaction, real-time RT-PCR and c-ret primer sequences, see Castelo-Branco et al., 2003 (7). Quantum RNA classical 18S internal standard was purchased from Ambion (Austin, USA) and PCR primers from DNA Technology A/S, Aarhus, Denmark. The following PCR programme was used for SYBR Green detection on the ABI PRISM 5700 Detection System (PE AppliedBiosystems, Foster City, Calif., USA): 94° C. for 2 min, 35-40 cycles of 94° C. for 30 s, 59° C. for 30s, 72° C. for 15s and 80° C. for 5s. Statistical analysis of the results was performed by a 2-tailed Wilcoxon signed rank test. Significance for all tests was assumed at the level of p<0.05 (*p<0.05; **0.01<p<0.001; ***p<0.001).

[9] = test system: MN9D cells; assay: MN9D cell number, proliferation and morphological differentiation; assay type: cell-based
Experimental: as §1, §3

[10] = biological target: T1, GSK-3β (Mus musculus, UniProt Q9WV60); assay: Immunoblotting of GSK-3β protein levels in SN4741 cells; assay type: cell-based; conditions: 15 μM KP and 5 μM I3M for 24 hours
T1 construct: treatment of a DA precursor cell line derived from the substantia nigra, SN4741 (21) with KP or I3M led to a downregulation of GSK-3β protein levels; endogenous in cells; host or cells: SN4741 cells
Experimental: as §1, §2

[11] = MN9D cells, 15 μM KP for four days

T1 sequence (Q9WV60 whole entry): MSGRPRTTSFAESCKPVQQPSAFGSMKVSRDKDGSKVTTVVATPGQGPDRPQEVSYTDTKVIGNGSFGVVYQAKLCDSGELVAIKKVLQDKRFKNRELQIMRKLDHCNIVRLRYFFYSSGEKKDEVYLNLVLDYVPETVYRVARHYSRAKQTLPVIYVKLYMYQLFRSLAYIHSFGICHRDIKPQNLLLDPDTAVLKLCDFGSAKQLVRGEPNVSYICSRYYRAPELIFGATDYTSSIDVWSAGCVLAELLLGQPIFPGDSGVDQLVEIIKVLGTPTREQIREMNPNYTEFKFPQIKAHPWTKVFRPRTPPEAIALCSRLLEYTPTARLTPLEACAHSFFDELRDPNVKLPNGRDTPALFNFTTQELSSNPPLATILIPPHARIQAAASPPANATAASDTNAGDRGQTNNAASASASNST

O=C1Cc2c([nH]c3ccc(Br)cc23)-c2ccccc2N1 [KP, Kenpaullone]
β-catenin protein levels [1]: increased
dose of maximal effect / optimal dose to increase TH+ cell numbers [2]: 15 µM
increase in the number of TH positive cells (maximal effect) [2]: three
TH protein levels [3]: increased
immature neurons (TuJ1 positive cells/Hoechst 33258) [4]: increased
number of mature neurons (MAP2 positive cells/Hoechst 33258) [4]: increase
proportion of TH+ DA neurons (TH+/TuJ1+ cells) [4]: marked increase
total number of astrocytes (GFAP positive cells/Hoechst 33258) [4]: increased
increase in the number of TH/Nurr1 double positive cells [5]: 2.5 fold
active Caspase 3 immunostaining [6]: not modified
proliferation (BrdU incorporation) [6]: not affected
total number of VM cells (Hoechst 33258 staining) [6]: did not change
kinase selectivity at the concentrations used [7]: GSK-3β selective inhibitor
c-ret mRNA levels [8]: upregulated
morphological differentiation of MN9D cells ([9]; 15 μM KP for four days): induced morphological differentiation
neurite extension of MN9D cells ([9]; KP treatment): increase
proliferation (BrdU incorporation) [9, 11]: did not alter
total number of cells (Hoechst 33258) [9, 11]: did not alter
GSK-3β protein levels [10]: decreases

O=C1Nc2ccccc2/C1=C1/Nc2ccccc2/C1=N\O [I3M, Indirubin-3-monoxime]
β-catenin protein levels [1]: increased
dose of maximal effect / optimal dose to increase TH+ cell numbers [2]: 3 to 5 µM
increase in the number of TH positive cells (maximal effect) [2]: five
TH protein levels [3]: increased
immature neurons (TuJ1 positive cells/Hoechst 33258) [4]: increased
number of mature neurons (MAP2 positive cells/Hoechst 33258) [4]: increase
proportion of TH+ DA neurons (TH+/TuJ1+ cells) [4]: marked increase
total number of astrocytes (GFAP positive cells/Hoechst 33258) [4]: increased
active Caspase 3 immunostaining [6]: reduced
proliferation (BrdU incorporation) [6]: significantly decreased
total number of VM cells (Hoechst 33258 staining) [6]: did not change
kinase selectivity at the concentrations used [7]: inhibits both GSK-3β and CDKs
GSK-3β protein levels [10]: decreases
